{
  "source": "paper PMC5736175",
  "about": "“Nicotinic alpha 7 receptor agonists EVP-6124 and BMS-933043, attenuate scopolamine-induced deficits in visuo-spatial paired associates learning” (PLoS ONE, 2017)",
  "test_system": "scopolamine-treated cynomolgus monkeys",
  "experiment": "Scopolamine-induced impairment of vsPAL task performance, treatment + scopolamine",
  "type": "in vivo, cynomolgus monkeys (Macaca Fasicularis)",
  "experimental": "Doses cited refer to the free base form of the compounds. […] All drugs were administered intramuscularly (i.m.) in a dosing volume of 0.1–0.2 ml/kg.\nOn days when compound testing occurred, approximately half the cohort received one dose and the remainder another dose of the same compound and therefore dose order was staggered between animals. With the exception of EVP-6124, all other compounds were tested in a single dose response study.\nCohen’s d values of >0.2, >0.5 and >0.8 are described using the conventions of small, medium, and large effects, respectively.",
  "key": {"[1]": {"details": "0.3 mg/kg + scopolamine vs vehicle+scopolamine, eventual accuracy, 4-stimuli"}, "[2]": {"details": "Donepezil 0.03 mg/kg + Scopolamine, group MEAN of 6 animals"}, "[3]": {"details": "Donepezil 0.03 mg/kg + Scopolamine, individual animals"}, "[4]": {"details": "Donepezil 0.1 mg/kg + Scopolamine, group MEAN of 6 animals"}, "[5]": {"details": "Donepezil 0.1 mg/kg + Scopolamine, individual animals"}, "[6]": {"details": "Donepezil 0.3 mg/kg + Scopolamine, group MEAN (one animal without value)"}, "[7]": {"details": "Donepezil 0.3 mg/kg + Scopolamine, group MEAN of 6 animals"}, "[8]": {"details": "Donepezil 0.3 mg/kg + Scopolamine, individual animals"}, "[9]": {"details": "all doses of the study, for EVP-6124 study (1)"}, "[10]": {"details": "compound 0.03 mg/kg i.m. + Scopolamine"}, "[11]": {"details": "compound 0.10 mg/kg i.m. + Scopolamine"}, "[12]": {"details": "compound 0.30 mg/kg i.m. + Scopolamine"}},
  "note": "“And” between values parts separate entries of the source, which are not always exact repeats. Equal entries are not always repeated. “Also recorded” adds a separate entry of the source. Structures can show the parent of a compound that is named as a salt.",
  "data": [
    {"smiles": "COc1cc2c(cc1OC)C(=O)C(CC1CCN(Cc3ccccc3)CC1)C2", "note": "(centres unmarked) [Donepezil, Donepezil hydrochloride]", "values": [
      {"measurement": "Cohen's d", "setting": "[1]", "value": "1.2 and 1.199"},
      {"measurement": "effect r", "setting": "[1]", "value": 0.514},
      {"measurement": "effect on scopolamine-induced impairment of eventual accuracy", "setting": "0.3 mg/kg i.m., 4-stimuli condition", "value": "significantly ameliorated; also recorded: significantly reversed"},
      {"measurement": "mean (cohen's d calculations)", "setting": "0.3 mpk + scop, eventual correct, 4-stimuli condition", "value": 68.7},
      {"measurement": "% Completion", "setting": "[2]", "value": 79.4, "unit": "%"},
      {"measurement": "Average Response Latency", "setting": "[2]", "value": 2339.5, "unit": "ms"},
      {"measurement": "Eventual Correct, 2 Stimuli", "setting": "[2]", "value": 100.0, "unit": "%"},
      {"measurement": "Eventual Correct, 3 Stimuli", "setting": "[2]", "value": 86.7, "unit": "%"},
      {"measurement": "Eventual Correct, 4 Stimuli", "setting": "[2]", "value": 42.1, "unit": "%"},
      {"measurement": "Eventual Correct, Overall Mean % Correct", "setting": "[2]", "value": 76.2, "unit": "%"},
      {"measurement": "Initial Correct, 3 Stimuli", "setting": "[2]", "value": 58.3, "unit": "%"},
      {"measurement": "Initial Correct, 4 Stimuli", "setting": "[2]", "value": 16.7, "unit": "%"},
      {"measurement": "Initial Correct, Overall Mean % Correct", "setting": "[2]", "value": 52.2, "unit": "%"},
      {"measurement": "Initial correct, 2 Stimuli", "setting": "[2]", "value": 81.7, "unit": "%"},
      {"measurement": "% Completion", "setting": "[3]", "value": "76.8% and 57.3% and 85.4% and 84.6% and 100.0% and 72.4%"},
      {"measurement": "Average Response Latency", "setting": "[3]", "value": "2796.9 ms and 1893.7 ms and 2469.8 ms and 2357.9 ms and 2353.0 ms"},
      {"measurement": "Eventual Correct, 2 Stimuli", "setting": "[3]", "value": 100.0, "unit": "%"},
      {"measurement": "Eventual Correct, 3 Stimuli", "setting": "[3]", "value": "90.0% and 80.0% and 50.0% and 100.0%"},
      {"measurement": "Eventual Correct, 4 Stimuli", "setting": "[3]", "value": "30.0% and 12.5% and 0.0% and 80.0% and 70.0% and 60.0%"},
      {"measurement": "Eventual Correct, Overall Mean % Correct", "setting": "[3]", "value": "73.3% and 64.2% and 50.0% and 93.3% and 90.0% and 86.7%"},
      {"measurement": "Initial Correct, 3 Stimuli", "setting": "[3]", "value": "50.0% and 70.0% and 40.0% and 60.0% and 90.0%"},
      {"measurement": "Initial Correct, 4 Stimuli", "setting": "[3]", "value": "10.0% and 0.0% and 30.0%"},
      {"measurement": "Initial Correct, Overall Mean % Correct", "setting": "[3]", "value": "50.0% and 56.7% and 36.7% and 46.7% and 73.3%"},
      {"measurement": "Initial correct, 2 Stimuli", "setting": "[3]", "value": "90.0% and 100.0% and 70.0% and 60.0%"},
      {"measurement": "% Completion", "setting": "[4]", "value": 80.6, "unit": "%"},
      {"measurement": "Average Response Latency", "setting": "[4]", "value": 2361.5, "unit": "ms"},
      {"measurement": "Eventual Correct, 2 Stimuli", "setting": "[4]", "value": 98.3, "unit": "%"},
      {"measurement": "Eventual Correct, 3 Stimuli", "setting": "[4]", "value": 90.0, "unit": "%"},
      {"measurement": "Eventual Correct, 4 Stimuli", "setting": "[4]", "value": 50.0, "unit": "%"},
      {"measurement": "Eventual Correct, Overall Mean % Correct", "setting": "[4]", "value": 79.4, "unit": "%"},
      {"measurement": "Initial Correct, 3 Stimuli", "setting": "[4]", "value": 63.3, "unit": "%"},
      {"measurement": "Initial Correct, 4 Stimuli", "setting": "[4]", "value": 30.0, "unit": "%"},
      {"measurement": "Initial Correct, Overall Mean % Correct", "setting": "[4]", "value": 57.2, "unit": "%"},
      {"measurement": "Initial correct, 2 Stimuli", "setting": "[4]", "value": 78.3, "unit": "%"},
      {"measurement": "% Completion", "setting": "[5]", "value": "70.7% and 75.0% and 77.6% and 100.0% and 96.4% and 63.8%"},
      {"measurement": "Average Response Latency", "setting": "[5]", "value": "2305.7 ms and 2751.0 ms and 1701.8 ms and 2272.3 ms and 2849.3 ms and 2289.1 ms"},
      {"measurement": "Eventual Correct, 2 Stimuli", "setting": "[5]", "value": "90.0% and 100.0%"},
      {"measurement": "Eventual Correct, 3 Stimuli", "setting": "[5]", "value": "60.0% and 90.0% and 100.0%"},
      {"measurement": "Eventual Correct, 4 Stimuli", "setting": "[5]", "value": "0.0% and 90.0% and 50.0% and 60.0%"},
      {"measurement": "Eventual Correct, Overall Mean % Correct", "setting": "[5]", "value": "50.0% and 93.3% and 80.0% and 83.3% and 86.7%"},
      {"measurement": "Initial Correct, 3 Stimuli", "setting": "[5]", "value": "90.0% and 80.0% and 40.0% and 20.0% and 70.0%"},
      {"measurement": "Initial Correct, 4 Stimuli", "setting": "[5]", "value": "50.0% and 30.0% and 0.0% and 40.0%"},
      {"measurement": "Initial Correct, Overall Mean % Correct", "setting": "[5]", "value": "76.7% and 70.0% and 36.7% and 63.3% and 33.3%"},
      {"measurement": "Initial correct, 2 Stimuli", "setting": "[5]", "value": "90.0% and 100.0% and 70.0% and 50.0%"},
      {"measurement": "Eventual Correct, 4 Stimuli", "setting": "[6]", "value": 68.7, "unit": "%"},
      {"measurement": "Initial Correct, 4 Stimuli", "setting": "[6]", "value": 28.2, "unit": "%"},
      {"measurement": "Average Response Latency", "setting": "[7]", "value": 2371.0, "unit": "ms"},
      {"measurement": "Eventual Correct, 2 Stimuli", "setting": "[7]", "value": 98.3, "unit": "%"},
      {"measurement": "Eventual Correct, 3 Stimuli", "setting": "[7]", "value": 85.0, "unit": "%"},
      {"measurement": "Eventual Correct, Overall Mean % Correct", "setting": "[7]", "value": 84.9, "unit": "%"},
      {"measurement": "Initial Correct, 3 Stimuli", "setting": "[7]", "value": 63.3, "unit": "%"},
      {"measurement": "Initial Correct, Overall Mean % Correct", "setting": "[7]", "value": 58.4, "unit": "%"},
      {"measurement": "Initial correct, 2 Stimuli", "setting": "[7]", "value": 80.0, "unit": "%"},
      {"measurement": "% Completion", "setting": "[8]", "value": "41.3% and 69.1% and 98.4% and 98.6% and 98.3% and 61.0%"},
      {"measurement": "Average Response Latency", "setting": "[8]", "value": "2379.3 ms and 1959.4 ms and 2184.7 ms and 2330.5 ms and 2840.5 ms and 2531.9 ms"},
      {"measurement": "Eventual Correct, 2 Stimuli", "setting": "[8]", "value": "100.0% and 90.0%"},
      {"measurement": "Eventual Correct, 3 Stimuli", "setting": "[8]", "value": "70.0% and 90.0% and 100.0%"},
      {"measurement": "Eventual Correct, 4 Stimuli", "setting": "[8]", "value": "60.0% and 80.0% and 90.0% and 33.3%"},
      {"measurement": "Eventual Correct, Overall Mean % Correct", "setting": "[8]", "value": "85.0% and 83.3% and 93.3% and 90.0% and 86.7% and 71.1%"},
      {"measurement": "Initial Correct, 3 Stimuli", "setting": "[8]", "value": "50.0% and 80.0% and 70.0% and 60.0%"},
      {"measurement": "Initial Correct, 4 Stimuli", "setting": "[8]", "value": "20.0% and 50.0% and 40.0% and 11.1%"},
      {"measurement": "Initial Correct, Overall Mean % Correct", "setting": "[8]", "value": "50.0% and 66.7% and 53.3% and 63.3% and 50.4%"},
      {"measurement": "Initial correct, 2 Stimuli", "setting": "[8]", "value": "50.0% and 100.0% and 80.0% and 90.0%"},
      {"measurement": "Holm-Sidak Post-Hoc, Treatment+Scopolamine differs from Vehicle+Scopolamine: percent correct on initial attempt, 3-stimuli", "setting": "all doses of the study", "value": "n.s."},
      {"measurement": "Holm-Sidak Post-Hoc, Treatment+Scopolamine differs from Vehicle+Scopolamine: Choice Response Latency", "setting": "[9]", "value": "n.s."},
      {"measurement": "Holm-Sidak Post-Hoc, Treatment+Scopolamine differs from Vehicle+Scopolamine: Percent Task Completed", "setting": "[9]", "value": "n.s."},
      {"measurement": "Holm-Sidak Post-Hoc, Treatment+Scopolamine differs from Vehicle+Scopolamine: percent correct on initial attempt, 2-stimuli", "setting": "[9]", "value": "n.s."},
      {"measurement": "Holm-Sidak Post-Hoc, Treatment+Scopolamine differs from Vehicle+Scopolamine: percent correct on initial attempt, 4 stimuli", "setting": "[9]", "value": "n.s."},
      {"measurement": "Percent Correct on Initial Attempt (SEM), 2 stimuli", "setting": "[10]", "value": "81.7% (7.0%)"},
      {"measurement": "Percent Correct on Initial Attempt (SEM), 3 stimuli", "setting": "[10]", "value": "58.3% (7.9%)"},
      {"measurement": "Percent Correct on Initial Attempt (SEM), 4 stimuli", "setting": "[10]", "value": "16.7% (6.1%)"},
      {"measurement": "Percent Correct on Initial Attempt (SEM), 2 stimuli", "setting": "[11]", "value": "78.3% (7.5%)"},
      {"measurement": "Percent Correct on Initial Attempt (SEM), 3 stimuli", "setting": "[11]", "value": "63.3% (11.2%)"},
      {"measurement": "Percent Correct on Initial Attempt (SEM), 4 stimuli", "setting": "[11]", "value": "30.0% (6.8%)"},
      {"measurement": "Percent Correct on Initial Attempt (SEM), 2 stimuli", "setting": "[12]", "value": "80.0% (6.8%)"},
      {"measurement": "Percent Correct on Initial Attempt (SEM), 3 stimuli", "setting": "[12]", "value": "63.3% (4.2%)"},
      {"measurement": "Percent Correct on Initial Attempt (SEM), 4 stimuli", "setting": "[12]", "value": "28.2% (7.2%)"}
    ]}
  ]
}
